Assay results published in PubChem BioAssay AID256 (DTP/NCI, 2004).
Where “and” joins values, the source holds several entries; their conditions need not be identical. Equal values may be shown once. Inconclusive results and toxic doses are left out. The calls were made as follows: active = survival T/C of 150% or more; inactive = T/C below 125% in these data.

Test system: CD2F1 mice, L1210 leukemia ip, survival T/C
Experiment: NCI In Vivo Anticancer Drug Screen. Data for tumor model L1210 Leukemia (intraperitoneal) in CD2F1 (CDF1) mice
Conditions: endpoint: mean survival time, higher = longer survival
Method in brief: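 In this screen, transplantable tumors were grown in mice given either the compound or its vehicle. Results were expressed as the treated measurement relative to the control measurement.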

[1] = dose: 100.0 mg/kg/injection, schedule: Q01DX009 (ip), vehicle: saline with Tween-80
[2] = dose: 200.0 mg/kg/injection, schedule: Q01DX009 (ip), vehicle: saline with Tween-80
[3] = dose: 12.5 mg/kg/injection, schedule: Q01DX009 (ip), vehicle: saline with Tween-80
[4] = dose: 25.0 mg/kg/injection, schedule: Q01DX009 (ip), vehicle: saline with Tween-80
[5] = dose: 50.0 mg/kg/injection, schedule: Q01DX009 (ip), vehicle: saline with Tween-80
[6] = dose: 100.0 mg/kg/injection, schedule: Q04DX003 (ip), vehicle: saline with Tween-80
[7] = dose: 400.0 mg/kg/injection, schedule: Q04DX003 (ip), vehicle: saline with Tween-80

Measured: T/C

CCCCNC(=S)N(CCCC)CCCC
inactive: [1] 102 % of control | [2] 87 % of control

N#C/C=C/C#N
inactive: dose: 0.15 mg/kg/injection, schedule: Q01DX009 (ip), vehicle: saline 105 % of control | dose: 0.3 mg/kg/injection, schedule: Q01DX009 (ip), vehicle: saline 102 % of control | dose: 0.6 mg/kg/injection, schedule: Q01DX009 (ip), vehicle: saline 102 % of control

CCCCCCCSc1nc2ccccc2s1
inactive: dose: 100.0 mg/kg/injection, schedule: Q04DX002 (ip), vehicle: saline with Tween-80 95 % of control | dose: 200.0 mg/kg/injection, schedule: Q04DX002 (ip), vehicle: saline with Tween-80 98 % of control | dose: 400.0 mg/kg/injection, schedule: Q04DX002 (ip), vehicle: saline with Tween-80 90 % of control

Brc1ccc(-c2csc(Nc3nc(-c4ccc(Br)cc4)cs3)n2)cc1
inactive: [3] 86 % of control | [4] 96 % of control | dose: 25.0 mg/kg/injection, schedule: Q04DX003 (ip), vehicle: saline with Tween-80 97 % of control | [5] 96 % of control | dose: 50.0 mg/kg/injection, schedule: Q04DX003 (ip), vehicle: saline with Tween-80 87 % of control | [6] 88 % of control | [7] 92 % of control

CC(=O)Nc1ccc(N=NN(C)C)cc1
inactive: dose: 4.68 mg/kg/injection, schedule: Q01DX009 (ip), vehicle: Klucel (hydroxypropylcellulose) (HPC) 106 % of control and 109 % of control | dose: 9.37 mg/kg/injection, schedule: Q01DX009 (ip), vehicle: Klucel (hydroxypropylcellulose) (HPC) 114 % of control and 116 % of control

CC1=C2CCOC2=Nc2ccccc2O1
inactive: dose: 75.0 mg/kg/injection, schedule: Q01DX001 (ip), vehicle: saline 109 % of control | dose: 150.0 mg/kg/injection, schedule: Q01DX001 (ip), vehicle: saline 104 % of control | dose: 300.0 mg/kg/injection, schedule: Q01DX001 (ip), vehicle: saline 97 % of control

Cn1cnc(=S)c2ccccc21
inactive: dose: 25.0 mg/kg/injection, schedule: Q04DX003 (ip), vehicle: Klucel (hydroxypropylcellulose) (HPC) 104 % of control | dose: 50.0 mg/kg/injection, schedule: Q04DX003 (ip), vehicle: Klucel (hydroxypropylcellulose) (HPC) 93 % of control

O=C(CNC(=O)NCc1ccco1)N/N=C/c1cc(Br)ccc1O
inactive: [3] 94 % of control | [4] 94 % of control | [5] 96 % of control | [2] 100 % of control

O=c1[nH]cc(S(=O)(=O)Nc2ccccc2)c(=O)[nH]1
inactive: dose: 100.0 mg/kg/injection, schedule: Q01DX001 (ip), vehicle: saline with Tween-80 88 % of control | dose: 400.0 mg/kg/injection, schedule: Q01DX001 (ip), vehicle: saline with Tween-80 96 % of control

O=C(COc1ccccc1)NCc1ccccc1Cl
inactive: [6] 100 % of control | dose: 200.0 mg/kg/injection, schedule: Q04DX003 (ip), vehicle: saline with Tween-80 103 % of control | [7] 91 % of control

BrCC[Se]c1ccccc1
inactive: dose: 3.12 mg/kg/injection, schedule: Q01DX009 (ip), vehicle: saline with Tween-80 105 % of control | dose: 6.25 mg/kg/injection, schedule: Q01DX009 (ip), vehicle: saline with Tween-80 111 % of control | [3] 102 % of control | [4] 115 % of control | [5] 107 % of control | [1] 104 % of control
